Measurements reported in the Kinase Knowledgebase extract (Sharma et al. 2016).

Each compound was assayed against PIK3CG (human) (UniProt P48736) (assay: Inhibition of PIK3CG Kinase Activity).
Chain of PIK3CG (human) (P48736 whole entry, looked up): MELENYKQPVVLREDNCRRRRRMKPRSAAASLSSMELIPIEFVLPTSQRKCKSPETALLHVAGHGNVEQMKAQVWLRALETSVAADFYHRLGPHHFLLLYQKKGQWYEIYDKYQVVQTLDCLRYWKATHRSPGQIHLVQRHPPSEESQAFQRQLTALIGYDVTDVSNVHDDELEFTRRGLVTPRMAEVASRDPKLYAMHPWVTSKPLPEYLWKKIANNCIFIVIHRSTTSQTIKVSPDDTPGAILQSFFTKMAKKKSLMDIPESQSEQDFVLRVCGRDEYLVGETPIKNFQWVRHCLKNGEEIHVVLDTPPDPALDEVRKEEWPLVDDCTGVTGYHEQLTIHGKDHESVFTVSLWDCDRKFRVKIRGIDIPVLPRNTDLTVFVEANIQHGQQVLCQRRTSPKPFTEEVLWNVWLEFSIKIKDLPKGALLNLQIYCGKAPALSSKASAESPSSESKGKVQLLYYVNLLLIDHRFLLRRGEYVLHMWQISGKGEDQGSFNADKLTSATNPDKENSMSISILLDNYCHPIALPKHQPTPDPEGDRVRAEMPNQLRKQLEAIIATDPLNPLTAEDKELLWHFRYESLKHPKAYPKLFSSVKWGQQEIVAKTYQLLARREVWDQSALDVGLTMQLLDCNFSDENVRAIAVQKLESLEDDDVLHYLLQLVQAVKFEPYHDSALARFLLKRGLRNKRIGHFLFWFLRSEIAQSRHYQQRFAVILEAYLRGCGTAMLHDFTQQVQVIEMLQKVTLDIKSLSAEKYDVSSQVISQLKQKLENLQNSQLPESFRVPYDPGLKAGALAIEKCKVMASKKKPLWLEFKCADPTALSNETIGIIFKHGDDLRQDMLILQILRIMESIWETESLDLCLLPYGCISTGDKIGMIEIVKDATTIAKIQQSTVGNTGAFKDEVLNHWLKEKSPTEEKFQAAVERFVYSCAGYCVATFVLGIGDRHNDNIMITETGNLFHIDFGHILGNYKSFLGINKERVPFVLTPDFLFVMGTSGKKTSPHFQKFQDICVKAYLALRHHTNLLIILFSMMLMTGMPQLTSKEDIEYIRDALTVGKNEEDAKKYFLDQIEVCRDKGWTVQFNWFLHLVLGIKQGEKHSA

IC50, < 800 nM:
O=C(NCc1cc(C2CC2)n[nH]1)Nc1nc2c(s1)-c1c(cnn1-c1ccccc1Cl)C2
CC(C)(C)OC(=O)N1CCCCC1CNC(=O)Nc1nc2c(s1)-c1c(cnn1-c1ccccc1Cl)C2 (configuration not stated)
Nc1cc(CCNC(=O)Nc2nc3c(s2)-c2c(cnn2-c2ccccc2C(F)(F)F)C3)nn1Cc1ccccc1
O=C(NCCN1CCOCC1)Nc1nc2c(s1)-c1c(cnn1-c1ccccc1Br)C2
Nc1cc(CCNC(=O)Nc2nc3c(s2)-c2c(cnn2-c2ccccc2C(F)(F)F)C3)nn1C1CCCC1
Cn1cccc1CCNC(=O)Nc1nc2c(s1)-c1c(cnn1-c1ccccc1Cl)C2
CCNC(=O)Nc1c(CCNC(=O)Nc2nc3c(s2)-c2c(cnn2-c2ccccc2C(F)(F)F)C3)cnn1C
CN(C)C(=O)Nc1nc2c(s1)-c1c(cnn1-c1ccccc1C(F)(F)F)C2
CCn1ccc(CNC(=O)Nc2nc3c(s2)-c2c(cnn2-c2ccccc2C(F)(F)F)C3)n1
Nc1cc(-c2ccccc2)nn1CCNC(=O)Nc1nc2c(s1)-c1c(cnn1-c1ccccc1C(F)(F)F)C2
O=C(NCC1CCC(N2CCNC2=O)CC1)Nc1nc2c(s1)-c1c(cnn1-c1ccccc1Cl)C2 (configuration not stated)
O=C(NCC1CC1)Nc1nc2c(s1)-c1c(cnn1-c1cccc(F)c1C(F)(F)F)C2
O=C(NCc1ccco1)Nc1nc2c(s1)-c1c(cnn1-c1ccccc1C(F)(F)F)C2
Nc1nnc(CNC(=O)Nc2nc3c(s2)-c2c(cnn2-c2ccccc2C(F)(F)F)C3)[nH]1
CC(C)(CNc1ccc(C(C)(C)C)cc1)NC(=O)Nc1nc2c(s1)-c1c(cnn1-c1ccccc1Cl)C2
CC(C)(C)c1cc(CNC(=O)Nc2nc3c(s2)-c2c(cnn2-c2ccccc2C(F)(F)F)C3)[nH]n1
CCCn1cnc(CCNC(=O)Nc2nc3c(s2)-c2c(cnn2-c2ccccc2Br)C3)c1
CCNC(=O)Nc1nc2c(s1)-c1c(cnn1-c1ccccc1C(F)(F)F)C2
CCCn1ccc(CNC(=O)Nc2nc3c(s2)-c2c(cnn2-c2ccccc2C(F)(F)F)C3)n1
O=C(NCCc1ccncc1)Nc1nc2c(s1)-c1c(cnn1-c1ccccc1Cl)C2
CCCNC(=O)Nc1nc2c(s1)-c1c(cnn1-c1cccc(F)c1C(F)(F)F)C2
O=C(NCc1cc(C2CC2)n[nH]1)Nc1nc2c(s1)-c1c(cnn1-c1ccccc1C(F)(F)F)C2
O=C(NCC1CC1)Nc1nc2c(s1)-c1c(cnn1-c1ccccc1Cl)C2
CNC(=O)Nc1nc2c(s1)-c1c(cnn1-c1cccc(F)c1C(F)(F)F)C2
CC(C)NC(=O)Nc1nc2c(s1)-c1c(cnn1-c1ccccc1Br)C2
O=C1Cc2ccccc2CN1CC1CCN(C(=O)Nc2nc3c(s2)-c2c(cnn2-c2ccccc2Cl)C3)C1 (configuration not stated)
CC(C)(C)OC(=O)CCNC(=O)Nc1nc2c(s1)-c1c(cnn1-c1cc(Cl)ccc1Cl)C2
O=C(NCCc1nc(C2CC2)no1)Nc1nc2c(s1)-c1c(cnn1-c1ccccc1C(F)(F)F)C2
CC(C)(C)OC(=O)N1CCC(CNC(=O)Nc2nc3c(s2)-c2c(cnn2-c2ccccc2Cl)C3)CC1
O=C(NCc1nnc(-c2ccccc2)o1)Nc1nc2c(s1)-c1c(cnn1-c1ccccc1C(F)(F)F)C2
CC(=O)NCC1CCCN(C(=O)Nc2nc3c(s2)-c2c(cnn2-c2ccccc2Cl)C3)C1 (configuration not stated)
CCCn1cnc(CCNC(=O)Nc2nc3c(s2)-c2c(cnn2-c2ccccc2Cl)C3)c1
